“And” between values parts separate entries of the source, which are not always exact repeats. Equal entries are not always repeated.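 The compound was tested at five concentrations on cells cultured in 96-well plates, with a 48-hour exposure period. Here, GI50 denotes the concentration required for 50% inhibition of growth. Definition used: TGI = concentration required for complete inhibition of growth.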 Where a SMILES comes first, the peptide text is derived from it. The star is where a group is joined. Boc = CC(C)(C)OC(=O)*

Experimental findings from PubChem BioAssay (NCI) are described below.

Some test systems named below: SK-MEL-28 melanoma; NCI-H522 lung; NCI-H23 lung; HOP-62 NSCLC; MOLT-4 leukemia; TK-10 renal; HOP-92 NSCLC; HCT-116 colon; SK-MEL-2 melanoma; A549 NSCLC; OVCAR-3 ovarian.
Common to all, as to assay: NCI tumour cell line growth inhibition, 48 h

On to `COC(=O)CNC(=O)C(Cc1ccccc1)NC(=O)C(CCSC)NC(=O)C(Cc1ccc(O)cc1)NC(=O)OC(C)(C)C` (stereo unspecified) (Boc-YMFG-OMe; configuration not given here), for which the TGI in the experiment on SK-MEL-28 melanoma was 34.8 µM; in the experiment with NCI-H522 lung it was 43 µM; with NCI-H23 lung it was over 100 µM; with HOP-62 NSCLC, over 100 µM; in the experiment with MOLT-4 leukemia it was 38.9 µM; in the experiment on TK-10 renal it was over 100 µM. In addition, the TGI in the experiment on HOP-92 NSCLC was 74.1 µM; in the experiment on HCT-116 colon, over 100 µM; in the experiment with SK-MEL-2 melanoma, 33.1 µM; with A549 NSCLC, over 100 µM; in the experiment on OVCAR-3 ovarian, 38.9 µM.
For `CC(=O)OCC1OC(OC(C)(C)CC/C=C(\C)[C@@H]2C/C=C(\C)CC/C=C(\C)CC2)C(O)C(O)C1OC(C)=O` (stereo partly specified), the GI50 was > 100 µM and 21.7 µM in the experiment on SK-MEL-28 melanoma; 46.2 µM and 12.7 µM in the experiment on NCI-H23 lung; > 82.7 µM and 16.8 µM in the experiment with HOP-62 NSCLC; > 100 µM and 20.6 µM with TK-10 renal; > 81.2 µM and 17.5 µM in the experiment on HOP-92 NSCLC; > 64.3 µM and 16.4 µM with SK-MEL-2 melanoma. Also, the GI50 is > 65.2 µM and 16.2 µM with A549 NSCLC; 53.3 µM and 15.3 µM in the experiment on OVCAR-3 ovarian. Besides, the TGI with SK-MEL-28 melanoma is > 100 µM and 40.6 µM; in the experiment with NCI-H522 lung it was 28.8 µM and 37.4 µM; in the experiment on NCI-H23 lung, > 100 µM and 25.3 µM; in the experiment on HOP-62 NSCLC it was > 100 µM and 30.4 µM; in the experiment on MOLT-4 leukemia, 49.1 µM; with TK-10 renal, > 100 µM and 38.3 µM. Besides, the TGI with HOP-92 NSCLC is > 100 µM and 35 µM; with HCT-116 colon, > 60.1 µM and 60.9 µM; in the experiment on SK-MEL-2 melanoma, > 100 µM and 29.9 µM; in the experiment with A549 NSCLC it was > 100 µM and 36 µM; in the experiment with OVCAR-3 ovarian, > 100 µM and 28.6 µM.
In the case of `COC(=O)CC(C(C(=O)OC)C(=O)OC)N1C(=O)OCC1c1ccccc1` (stereo unspecified), the TGI in the experiment with SK-MEL-28 melanoma, in the experiment with NCI-H522 lung, with NCI-H23 lung, in the experiment with HOP-62 NSCLC, in the experiment on MOLT-4 leukemia and with TK-10 renal was over 100 µM throughout. Moreover, the TGI in the experiment on HOP-92 NSCLC, with HCT-116 colon, with SK-MEL-2 melanoma, in the experiment on A549 NSCLC and in the experiment with OVCAR-3 ovarian was over 100 µM each time.
In the case of `CC1=C2C(=O)NN=C2CCN1c1ccc(Br)cc1`, the TGI in the experiment with SK-MEL-28 melanoma, with NCI-H522 lung, in the experiment with NCI-H23 lung, in the experiment on HOP-62 NSCLC, in the experiment with MOLT-4 leukemia and in the experiment on TK-10 renal was over 100 µM throughout. Moreover, the TGI with HOP-92 NSCLC, with HCT-116 colon, with SK-MEL-2 melanoma, in the experiment with A549 NSCLC and with OVCAR-3 ovarian was over 100 µM in each case.
For `COc1ccc(C2CC(c3c(O)ccc4ccccc34)=NN2c2ccc([N+](=O)[O-])cc2[N+](=O)[O-])cc1OC` (stereo unspecified), the TGI is over 100 µM in the experiment on SK-MEL-28 melanoma; over 42.9 µM in the experiment on NCI-H522 lung; over 85.4 µM with NCI-H23 lung; over 71.7 µM in the experiment on HOP-62 NSCLC; 21.5 µM in the experiment on MOLT-4 leukemia; over 100 µM in the experiment with TK-10 renal. The TGI in the experiment on HOP-92 NSCLC was 58.7 µM; with HCT-116 colon it was over 100 µM; in the experiment with SK-MEL-2 melanoma, over 65.1 µM; in the experiment on A549 NSCLC it was 98.3 µM; with OVCAR-3 ovarian it was 58.3 µM.
For `Cc1c(-c2nc3ccccc3[nH]2)c(=O)n(-c2ccccc2)n1C`, the TGI with SK-MEL-28 melanoma, with NCI-H522 lung, with NCI-H23 lung, in the experiment on HOP-62 NSCLC, in the experiment on MOLT-4 leukemia and in the experiment on TK-10 renal was over 100 µM in each case. For the same molecule, the TGI in the experiment on HOP-92 NSCLC, in the experiment with HCT-116 colon, in the experiment on SK-MEL-2 melanoma, with A549 NSCLC and with OVCAR-3 ovarian was over 100 µM throughout.
In the case of `C=C1CC(COc2cc(=O)oc3ccccc23)(c2ccccc2)OC1=O` (stereo unspecified), the TGI in the experiment on SK-MEL-28 melanoma was 6.13 µM; with NCI-H522 lung, 3.88 µM; with NCI-H23 lung, 4.92 µM; with HOP-62 NSCLC it was 22.9 µM; in the experiment on MOLT-4 leukemia it was over 20.8 µM; with TK-10 renal, 3.89 µM. The TGI worked out at 2.34 µM in the experiment on HOP-92 NSCLC; 2.87 µM in the experiment with HCT-116 colon; 2.33 µM in the experiment with SK-MEL-2 melanoma; 25.1 µM with A549 NSCLC; 1.87 µM in the experiment with OVCAR-3 ovarian.
`O=c1nc(N2CCN(c3ccccc3)CC2)ccn1C1OC(CO)C(O)C1O` (stereo unspecified): the TGI in the experiment on SK-MEL-28 melanoma, in the experiment with NCI-H522 lung, with NCI-H23 lung, in the experiment on HOP-62 NSCLC, with MOLT-4 leukemia and with TK-10 renal was over 100 µM in each case. Moreover, the TGI with HOP-92 NSCLC, in the experiment with HCT-116 colon, in the experiment on SK-MEL-2 melanoma, in the experiment on A549 NSCLC and in the experiment on OVCAR-3 ovarian was over 100 µM throughout.
